Reference: US20250032623A1, “HETEROBIFUNCTIONAL COMPOUNDS AND THEIR USE IN TREATING DISEASE” (HALDA THERAPEUTICS OPCO, INC., priority 2021, published 2025)
Like-named read-outs stand apart in the source and are kept apart here.

What was measured:
HeLa cells = assay: Cellular growth inhibition assay (CellTiter-Glo), HeLa cells; assay type: cell-based; conditions: three days compound treatment, CellTiter-Glo 2.0, read-out: CTG HELA GI50
Procedure: (§1) Exemplary compounds were tested for ability to inhibit the proliferation of HEK293 cells or HeLa cells.
(§2) HEK293 and HeLa cells were cultured in DMEM medium supplemented with 10% fetal bovine serum and 1% Penn/Strep. Cells were seeded in white 384-well plates at 500 cells/well in […] complete medium. Following seeding, plates were spun at 300×g for three minutes and cultured at 37° C. with 5% CO2 in a humidified tissue culture incubator.
(§3) After 24 hours, compounds were titrated in 100% DMSO and diluted in complete cell culture medium. […] of compound/media mixture was added to cells to bring total volume in well to […]. DMSO alone was used as a negative control. P lates were then spun at 300×g for three minutes and stored at 37° C. with 5% CO2 for three days.
(§4) On Day 0 and Day 3 of compound treatment, cell viability was quantified with CellTiter-Glo 2.0 reagent (Promega). After equilibrating microplates at room temperature for 30 minutes, 25 μL CellTiter-Glo 2.0 reagent was dispensed into each well to bring total volume to […]. Plates were mixed on shaker for 2 minutes at 500 rpm, followed by a 10-minute incubation at room temperature. Following a quick spin, luminescence readings were measured with an EnVision Plate Reader. Data was normalized to DMSO treated Day 0 and Day 3 readings. A four-parameter non-linear regression curve fit was applied to dose-response data in GraphPad Prism data analysis software to determine the half maximal growth inhibitory concentration (GI50) for each compound.

HEK293 cells = assay: Cellular growth inhibition assay (CellTiter-Glo), HEK293 cells; assay type: cell-based; conditions: three days compound treatment, CellTiter-Glo 2.0, read-out: CTG HEK293 GI50
Procedure: as §1, §2, §3, §4

| SMILES | GI50 (HeLa cells; Homo sapiens, 72 h) [µM] | GI50 (HEK293 cells; Homo sapiens, 72 h) [µM] | GI50 (HeLa cells) [µM] | GI50 (HEK293 cells) [µM] |
| --- | --- | --- | --- | --- |
| CCc1cnn2c(NCc3ccc(OCCOCCOCCOCCOCCN(C)C/C=C/C(=O)N4CCN(c5nc(=O)n(-c6c(C)ccnc6C(C)C)c6nc(-c7c(O)cccc7F)c(F)cc56)[C@@H](C)C4)nc3)cc(N3CCCC[C@H]3CCO)nc12 [Compound I-76] | > 5 | > 5 |  |  |
| Cc1c(CC(=O)N(C)C)ccc(NC(=O)c2nn([C@@H]3CCCN(C(=O)/C=C/CN(C)CCOCCOCC(=O)NCCCCn4nc(-c5ccc6oc(N)nc6c5)c5c(N)ncnc54)C3)c3ncnc(N)c23)c1C [Compound I-83, 4-amino-1-[(3R)-1-[(E)-4-[2-1[2-[2-[4-[4-amino-3-(2-amino-1,3-benzoxazol-5-yl)pyrazolo[3,4-d]pyrimidin-1-yl]butylamino]-2-oxo-ethoxy]ethoxy]ethyl-methyl-amino]but-2-enoyl]-3-piperidyl]-N-[4-[2-(dimethylamino)-2-oxo-ethyl]-2,3-dimethyl-phenyl]pyrazolo[3,4-d]pyrimidine-3-carboxamide] |  |  | > 5 | 1.5 to 5 |
| C=CC(=O)NC1CN(c2nc(Nc3cn(CCOCCOCCOCCOCCOCCOCCNC(=O)c4ccc(Nc5ncc6c(n5)N(C5CCCC5)[C@H](CC)C(=O)N6C)c(OC)c4)nc3OC)c3ncn(C)c3n2)C[C@H]1F (stereo partly drawn) [Compound I-114, 4-[[(7R)-8-cyclopentyl-7-ethyl-5-methyl-6-oxo-7H-pteridin-2-yl]amino]-N-[2-[2-[2-[2-[2-[2-[2-[4-[[2-[(3R)-3-fluoro-4-(prop-2-enoylamino)pyrrolidin-1-yl]-9-methyl-purin-6-yl]amino]-3-methoxy-pyrazol-1-yl]ethoxy]ethoxy]ethoxy]ethoxy]ethoxy]ethoxy]ethyl]-3-methoxy-benzamide] |  | 1.5 to 5 |  |  |
| CC[C@@H]1C(=O)N(C)c2cnc(Nc3ccc(C(=O)NCCN(C)C/C=C/C(=O)Nc4cc(Nc5nccc(-c6cn(C)c7ccccc67)n5)c(OC)cc4N(C)CCN(C)C)cc3OC)nc2N1C1CCCC1 [Compound I-116, 4-[[(7R)-8-cyclopentyl-7-ethyl-5-methyl-6-oxo-7H-pteridin-2-yl]amino]-N-[2-[[(E)-4-1[2-[2-(dimethylamino)ethyl-methyl-amino]-4-methoxy-5-[[4-(1-methylindol-3-yl)pyrimidin-2-yl]amino]anilino]-4-oxo-but-2-enyl]-methyl-amino]ethyl]-3-methoxy-benzamide] |  | 1.5 to 5 |  |  |
| CC[C@@H]1C(=O)N(C)c2cnc(Nc3ccc(C(=O)NCCN(C)C/C=C/C(=O)NC4CN(c5nc(Nc6cn(C)nc6OC)c6ncn(C)c6n5)C[C@H]4F)cc3OC)nc2N1C1CCCC1 (stereo partly drawn) [Compound I-119, 4-[l[(7R)-8-cyclopentyl-7-ethyl-5-methyl-6-oxo-7H-pteridin-2-yl]amino]-N—[2-[ [(E)-4-[ [(3R,4R)-4-fluoro-1-[6-[(3-methoxy-1-methyl-pyrazol-4-yl)amino]-9-methyl-purin-2-yl]pyrrolidin-3-yl]amino]-4-oxo-but-2-enyl]-methyl-amino]ethyl]-3-methoxy-benzamide] |  | 1.5 to 5 |  |  |
| C=CC(=O)N[C@@H]1CN(c2nc(Nc3cn(CCOCCOCCNS(=O)(=O)c4ccc(Nc5ncc(Br)c(Nc6cccc(F)c6C(N)=O)n5)cc4)nc3OC)c3ncn(C)c3n2)C[C@H]1F [Compound I-142, 2-[[5-bromo-2-[4-[2-[2-[2-[4-[[2-1[(3R,4R)-3-fluoro-4-(prop-2-enoylamino)pyrrolidin-1-yl]-9-methyl-purin-6-yl]amino]-3-methoxy-pyrazol-1-yl]ethoxy]ethoxy]ethylsulfamoyl]anilino]pyrimidin-4-yl]amino]-6-fluoro-benzamide] |  |  | 1.5 to 5 | > 5 |
| C=CC(=O)N[C@@H]1CN(c2nc(Nc3cn(CCOCCOCCOc4ccc(CNc5cc(N6CCCC[C@H]6CCO)nc6c(CC)cnn56)cn4)nc3OC)c3ncn(C)c3n2)C[C@H]1F [Compound I-144, N-[(3R,4R)-1-[6-[[1-[2-[2-[2-[[5-1[[[3-ethyl-5-[(2S)-2-(2-hydroxyethyl)-1-piperidyl]pyrazolo[1,5-a]pyrimidin-7-yl]amino]methyl]-2-pyridyl]oxy]ethoxy]ethoxy]ethyl]-3-methoxy-pyrazol-4-yl]amino]-9-methyl-purin-2-yl]-4-fluoro-pyrrolidin-3-yl]prop-2-enamide] |  |  | < 0.5 | < 0.5 |
